# Reference: US6887896B1, “7-[(7-Alkoxy)-chrom-3-en-6-yl]-heptatrienoic acid and 7-[(3-alkoxy)-5,6-dihydronaphthalen-2-yl]-heptatrienoic acid derivatives having serum glucose reducing activity” (Allergan, Inc., priority 2003, dated 2005)
# How the values were obtained:
# RARβ = molecular target: T1, RARβ (Homo sapiens, UniProt P10826); assay: ligand binding assay, RARβ; details: read-out: RAR Bind. Ki β
# T1 sequence (P10826 1-455): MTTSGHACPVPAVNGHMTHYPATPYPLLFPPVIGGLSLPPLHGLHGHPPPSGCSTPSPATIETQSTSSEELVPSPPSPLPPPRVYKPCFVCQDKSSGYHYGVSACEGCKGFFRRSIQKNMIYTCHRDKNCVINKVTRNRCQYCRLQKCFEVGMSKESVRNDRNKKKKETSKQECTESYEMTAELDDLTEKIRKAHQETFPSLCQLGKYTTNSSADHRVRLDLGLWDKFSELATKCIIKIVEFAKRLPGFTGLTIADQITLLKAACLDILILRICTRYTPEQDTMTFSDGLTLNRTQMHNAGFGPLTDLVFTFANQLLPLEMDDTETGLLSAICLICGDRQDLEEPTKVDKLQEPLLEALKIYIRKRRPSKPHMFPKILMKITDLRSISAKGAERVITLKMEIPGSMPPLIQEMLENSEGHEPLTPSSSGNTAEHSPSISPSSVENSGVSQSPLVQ
# Excerpt: (§1) Specifically, one such assay is a chimeric receptor transactivation assay which tests for agonist-like activity in the R RAPE and RAR7 receptor subtypes, and which is based on work published by Feigner, P. L. and Holm, M (1989) Focus, 112 is described in detail in U.S. Pat. No. 5,455,265. The specification of U.S. Pat. No. 5,455,265 is hereby expressly incorporated by reference. A holoreceptor transactivation assay and a ligand binding assay which measure the antagonist/agonist like activity of the compounds of the invention, or their ability to bind to the several retinoid receptor subtypes, respectively, are described in published PCT Application No. WO WO93/11755 (particularly on pages 30-33 and 37-41) published on Jun. 24, 1993, the specification of which is also incorporated herein by reference. A detailed experimental procedure for holoreceptor transactivations has been described by Heyman et al. Cell 68, 397-406, (1992); Allegretto et al. J. Biol. Chem. 268, 26625-26633, and Mangelsdorf et al. The Retinoids: Biology, Chemistry and Medicine, pp 319-349, Raven Press Ltd., New York, which are expressly incorporated herein by reference. The results obtained in this assay are expressed in EC50 numbers, as they are also in the chimeric receptor transactivation assay. The results of the ligand binding assay are expressed in Ki numbers. (See Cheng et al. Biochemical Pharmacology Vol. 22 pp 3099-3108, expressly incorporated herein by reference.)
# (§2) Generally speaking, in the tables disclosing the results of transactivation and binding assays the numbers in parentheses indicate efficacy as a percentage compared to the standard compound, (2E,4E,1′S,2′S)-3-methyl-5-[2′-methyl-2′-(5,5,8,8-tetramethyl-5,6,7,8-tetrahydro-naphthalen-2-yl)cyclopropyl]-penta-2,4-dienoic acid and the other numbers indicate the measured EC50 and K; in nanomolar concentration.
# RXRα = molecular target: T2, RXRα (Homo sapiens, UniProt P19793); assay: holoreceptor transactivation assay, RXRα; format: cell-based; details: for EC50: holoreceptor transactivation, read-out: RXR Trans. EC50 α; for Emax: percentage compared to the standard compound, read-out: RXR Trans. efficacy (number in parentheses) α
# T2 construct: expressed in transfected cells
# T2 sequence (P19793 1-462): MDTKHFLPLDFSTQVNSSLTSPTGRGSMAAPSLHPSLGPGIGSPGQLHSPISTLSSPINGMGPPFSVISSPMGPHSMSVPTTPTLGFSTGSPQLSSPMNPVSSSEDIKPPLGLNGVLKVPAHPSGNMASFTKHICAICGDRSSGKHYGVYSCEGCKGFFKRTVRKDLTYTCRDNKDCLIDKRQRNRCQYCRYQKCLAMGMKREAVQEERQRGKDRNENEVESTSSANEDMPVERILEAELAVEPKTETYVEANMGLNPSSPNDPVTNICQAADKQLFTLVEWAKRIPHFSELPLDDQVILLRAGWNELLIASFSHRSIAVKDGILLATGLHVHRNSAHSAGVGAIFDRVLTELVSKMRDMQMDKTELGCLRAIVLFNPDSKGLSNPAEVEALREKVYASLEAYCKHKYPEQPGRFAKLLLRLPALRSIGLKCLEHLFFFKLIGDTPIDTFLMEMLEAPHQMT
# Excerpt: as §1
# Efficacy in a transactivation assay is expressed as a percentage of the maximum potency attained by the compound compared to a standard which, in this case, is the compound named (2E,4E,1′S,2′S)-3-methyl-5-[2′-methyl-2′-(5,5,8,8-tetramethyl-5,6,7,8-tetrahydro-naphthalen-2-yl)-cyclopropyl]-penta-2,4-dienoic acid. This standard compound is described in U.S. Pat. No. 6,114,533.
# The specification of this application for patent is organized in several sections in accordance with structural Formulas A through F each of which discloses a group of preferred compounds within the scope of the invention. Tables that disclose the activity of certain exemplary compounds of the invention in the above-described RXR receptor transactivation and binding assays are found in the corresponding sections. […] The transactivation data pertaining to the activation of RXR receptors were obtained in the holoreceptor assay.
# as §2
# RARγ = molecular target: T3, RARγ (Homo sapiens, UniProt P13631); assay: ligand binding assay, RARγ; details: read-out: RAR Bind. Ki γ
# T3 sequence (P13631 1-454): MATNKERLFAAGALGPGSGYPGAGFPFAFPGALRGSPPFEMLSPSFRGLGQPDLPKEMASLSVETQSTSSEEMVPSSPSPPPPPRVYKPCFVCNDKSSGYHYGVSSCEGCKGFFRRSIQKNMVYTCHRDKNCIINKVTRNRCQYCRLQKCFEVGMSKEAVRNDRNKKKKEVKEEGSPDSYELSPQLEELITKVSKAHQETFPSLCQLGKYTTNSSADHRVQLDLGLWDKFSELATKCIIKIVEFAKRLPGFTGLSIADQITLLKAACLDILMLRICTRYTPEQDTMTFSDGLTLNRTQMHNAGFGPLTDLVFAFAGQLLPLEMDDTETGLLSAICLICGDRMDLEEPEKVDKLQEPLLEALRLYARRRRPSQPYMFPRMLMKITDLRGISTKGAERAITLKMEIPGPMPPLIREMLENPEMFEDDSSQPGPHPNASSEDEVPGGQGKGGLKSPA
# Excerpt: as §1, §2
Structure (SMILES),Ki (RARβ) [nM],EC50 (RXRα) [nM],Ki (RARγ) [nM],Emax (RXRα) [%]
"CCOc1cc2c(cc1\C(C)=C(F)/C=C/C(C)=C/C(=O)O)C(CC)=CC(C)(C)O2 [Compound 123, 7-(7-Ethoxy-4-ethyl-2,2-dimethyl-2H-chromen-6-yl)-6-fluoro-3-methyl-octa-2E,4E,6E-trienoic acid]",> 10000,> 10000,> 10000,
"CC/C(=C(F)/C=C/C(C)=C/C(=O)O)c1cc2c(cc1OC)OC(C)(C)C=C2C [Compound 129, 6-Fluoro-7-(7-methoxy-2,2,4-trimethyl-2H-chromen-6-yl)-3-methyl-nona-2E,4E,6E-trienoic acid]",490,44,4700,99
"CC/C(=C(F)/C=C/C(C)=C/C(=O)O)c1cc2c(cc1OC)OC(C)(C)C=C2C(C)C [Compound 130, 6-Fluoro-7-(4-isopropyl-7-methoxy-2,2-dimethyl-2H-chromen-6-yl)-3-methyl-nona-2E,4E,6E-trienoic acid]",547,0.5,2700,80
"CC/C(=C(F)/C=C/C(C)=C/C(=O)O)c1cc2c(cc1OC)OC(C)(C)C=C2C(C)(C)C [Compound 131, 7-(4-tert-Butyl-7-methoxy-2,2-dimethyl-2H-chromen-6-yl)-6-fluoro-3-methyl-nona-2E,4E,6E-trienoic acid]",843,6,3300,37
"CCOc1cc2c(cc1\C(CC)=C(F)/C=C/C(C)=C/C(=O)O)C(C)=CC(C)(C)O2 [Compound 132, 7-(7-Ethoxy-2,2,4-trimethyl-2H-chromen-6-yl)-6-fluoro-3-methyl-nona-2E,4E,6E-trienoic acid]",548,759,2400,15
"COc1c(\C(C)=C(F)/C=C/C(C)=C/C(=O)O)cc2c(c1Cl)OC(C)(C)C=C2C(C)C [Compound 170, 7-(8-Chloro-4-isopropyl-7-methoxy-2,2-dimethyl-2H-chromen-6-yl)-6-fluoro-3-methyl-octa-2E,4E,6E-trienoic acid]",2300,0.8,5300,86
"CC/C(=C(F)/C=C/C(C)=C/C(=O)O)c1cc2c(c(Cl)c1OC)OC(C)(C)C=C2C(C)C [Compound 171, 7-(8-Chloro-4-isopropyl-7-methoxy-2,2-dimethyl-2H-chromen-6-yl)-6-fluoro-3-methyl-nona-2E,4E,6E-trienoic acid]",381,0.02,4900,87
"CCOc1c(\C(C)=C(F)/C=C/C(C)=C/C(=O)O)cc2c(c1Cl)OC(C)(C)C=C2C(C)C [Compound 172, 7-(8-Chloro-4-isopropyl-7-ethoxy-2,2-dimethyl-2H-chromen-6-yl)-6-fluoro-3-methyl-octa-2E,4E,6E-trienoic acid]",442,5.4,1400,52
CCOc1c(\C(CC)=C(F)/C=C/C(C)=C/C(=O)O)cc2c(c1Cl)OC(C)(C)C=C2C(C)C [Compound 173],431,4.8,2400,18
CC(/C=C/C(F)=C(/C)c1cc2c(c(Cl)c1OC(C)C)OC(C)(C)C=C2C(C)C)=C\C(=O)O [Compound 174],1300,59,3400,8

# Second part, the molecule after the results:
Ki (RARβ) [nM],EC50 (RXRα) [nM],Ki (RARγ) [nM],Emax (RXRα) [%],Structure (SMILES)
610,12,3800,39,"CCOc1cc2c(cc1\C(=C/C=C/C(C)=C/C(=O)O)CC)C(C)=CCC2(C)C [Compound A-16, 7-(3-Ethoxy-5,5,8-trimethyl-5,6-dihydronaphthalen-2-yl)-3-methyl-nona-2E,4E,6Z-trienoic acid]"
401,0.6,1900,85,"CCOc1cc2c(cc1\C(C)=C/C=C/C(C)=C/C(=O)O)C(C(C)(C)C)=CCC2(C)C [Compound A-17, 7-(8-tert-Butyl-3-ethyloxy-5,5-dimethyl-5,6-dihydronaphthalen-2-yl)-3-methyl-octa-2E,4E,6Z-trienoic acid]"
137,2.6,537,18,"CCOc1cc2c(cc1\C(=C/C=C/C(C)=C/C(=O)O)CC)C(C(C)(C)C)=CCC2(C)C [Compound A-18, 7-(8-tert-butyl-3-ethyoxy-5,5-dimethyl-5,6-dihydronaphthalen-2-yl)-3-methyl-nona-2E,4E,6Z-trienoic acid]"
2600,50,9200,104,"CCOc1cc2c(cc1\C(C)=C(F)/C=C/C(C)=C/C(=O)O)C=CCC2(C)C [Compound A-76, (2E,4E,6E)-7-(3-Ethoxy-5,5-dimethyl-5,6-dihydro-naphthalen-2-yl)-6-fluoro-3-methyl-octa-2,4.6-trienoic acid]"
477,3,2200,23,"CCOc1cc2c(cc1\C(CC)=C(F)/C=C/C(C)=C/C(=O)O)C(CC)=CCC2(C)C [Compound A-78, (2E,4E,6E)-7-(3-Ethoxy-8-ethyl-5,5-dimethyl-5,6-dihydro-naphthalen-2-yl)-6-fluoro-3-methyl-nona-2,4,6-trienoic acid]"
400,1,1400,43,"CCOc1cc2c(cc1\C(C)=C(F)/C=C/C(C)=C/C(=O)O)C(C(C)(C)C)=CCC2(C)C [Compound A-82, (2E,4E,6E)-6-Fluoro-3-(4,4-dimethyl-6-ethoxy-1-tert-butyl-3,4 dihydronaphthalen-7-yl)-3-methyl-2,4,6-octa-trienoic acid]"
261,2,698,13,"CCOc1cc2c(cc1\C(CC)=C(F)/C=C/C(C)=C/C(=O)O)C(C(C)(C)C)=CCC2(C)C [Compound A-83, (2E,4E,6E)-7-(8-tert-Butyl-3-ethoxy-5,5-dimethyl-5,6-dihydronaphthalen-2-yl)-6-fluoro-3-methyl-nona-2,4,6-trienoic acid]"
